Source: the NIST ThermoML archive (doi:10.1021/acs.jced.8b00460)
Numbers after ± are expanded uncertainties.

Conditions: 511.35 K; Liquid; Ebulliometric method (Recirculating still)

vapor or sublimation pressure: 1.015 ± 0.1 kPa
SMILES: O=C(OCCOCCOC(=O)c1ccccc1)c1ccccc1 [diethylene glycol dibenzoate]
